Results reported in PubChem BioAssay (NCI).
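These data come from cells grown in 96-well plates and exposed to compound for 48 hours at five concentrations. Here, GI50 denotes the concentration required for 50% inhibition of growth. TGI: total growth inhibition.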

Columns and labels:
Experiment in all cases: DTP human tumour cell line panel, 48 h
NCI-H522 lung = tested on: NCI-H522 lung
OVCAR-4 ovarian = tested on: OVCAR-4 ovarian
M14 melanoma = tested on: M14 melanoma
SF-539 CNS = tested on: SF-539 CNS
NCI-H460 lung = tested on: NCI-H460 lung
SF-295 CNS = tested on: SF-295 CNS
HOP-62 NSCLC = tested on: HOP-62 NSCLC
CCRF-CEM leukemia = tested on: CCRF-CEM leukemia
HL-60(TB) leukemia = tested on: HL-60(TB) leukemia
ACHN renal = tested on: ACHN renal

Compound | TGI (NCI-H522 lung) | TGI (OVCAR-4 ovarian) | TGI (M14 melanoma) | TGI (SF-539 CNS) | TGI (NCI-H460 lung) | TGI (SF-295 CNS) | TGI (HOP-62 NSCLC) | TGI (CCRF-CEM leukemia) | TGI (HL-60(TB) leukemia) | TGI (ACHN renal) | GI50 (NCI-H522 lung) | GI50 (OVCAR-4 ovarian) | GI50 (NCI-H460 lung) | GI50 (SF-295 CNS) | GI50 (HOP-62 NSCLC) | GI50 (CCRF-CEM leukemia) | GI50 (HL-60(TB) leukemia)
O=C(NNC(=O)c1ccco1)c1ccco1 | > 100 µM | > 100 µM | > 100 µM | > 100 µM | > 100 µM | > 100 µM | > 100 µM | > 100 µM | > 100 µM | – | – | – | – | – | – | – | –
S=C(NCc1ccccn1)N/N=C/c1ccccn1 | 0.0713 µM | > 30.5 µM | > 100 µM | 0.396 µM | 2.7 µM | > 96 µM | – | < 0.011 µM | < 0.01 µM | 1.1 µM | – | – | – | – | – | – | –
Nc1nc(N)c2nc(CN(C=O)c3ccc(C(=O)O)cc3)cnc2n1 | > 100 µM | > 100 µM | > 100 µM | > 100 µM | > 100 µM | > 100 µM | > 100 µM | > 100 µM | > 100 µM | > 100 µM | – | – | – | – | – | – | –
Cc1ccc(C(=O)N/N=C(\N=Nc2ccc([N+](=O)[O-])cc2)c2ccc(N(CCC#N)CCC#N)cc2C)cc1 | – | > 100 µM | > 100 µM | > 100 µM | > 100 µM | > 100 µM | > 100 µM | > 100 µM | 65.7 µM | > 100 µM | – | – | – | – | – | – | –
CC1(C)N=C(C(N)=O)c2[nH]cnc2N1 | > 100 µM | > 100 µM | > 100 µM | > 100 µM | > 100 µM | > 100 µM | > 100 µM | > 100 µM | > 100 µM | > 100 µM | – | – | – | – | – | – | –
O=C1NC(N2CCCC(CO)C2)=N/C1=C\c1cccs1 (stereo not given) | > 100 µM | > 100 µM | > 100 µM | > 100 µM | – | > 100 µM | > 100 µM | > 100 µM | > 100 µM | > 100 µM | – | – | – | – | – | – | –
Cc1ccc(/C=c2\cc3oc(=O)c4cccc(c4-3)c2=O)cc1 | > 100 µM | > 100 µM | > 100 µM | > 100 µM | > 100 µM | > 100 µM | > 100 µM | 68.2 µM | > 100 µM | > 100 µM | – | – | – | – | – | – | –
C=CCOCC1C2CCC3(OCCO3)C21 (stereo not given) | > 100 µM | > 100 µM | > 100 µM | > 100 µM | > 100 µM | > 100 µM | > 100 µM | > 100 µM | – | > 100 µM | – | – | – | – | – | – | –
CNC(=O)[C@H](Cc1ccccc1)NC(=O)N(CCC#N)CCN(C(=O)N[C@@H](Cc1ccccc1)C(=O)OC)c1ccccc1 | > 100 µM | > 100 µM | > 100 µM | > 100 µM | > 100 µM | > 100 µM | > 100 µM | > 100 µM | > 100 µM | > 100 µM | – | – | – | – | – | – | –
CSc1c(C(C)=O)c(O)n(-c2ccc(C)cc2)c(=O)c1C#N | > 100 µM | > 100 µM | > 100 µM | > 100 µM | > 100 µM | – | – | > 100 µM | > 100 µM | – | – | – | – | – | – | – | –
O=C(/C=C/c1ccc(OCc2ccccc2)cc1)NCc1ccc(C(=O)NCCc2ccccc2)cc1 | > 100 µM | > 100 µM | > 100 µM | > 100 µM | > 100 µM | > 100 µM | > 100 µM | > 100 µM | – | > 100 µM | – | – | – | – | – | – | –
CCOC(=O)C(O)(CC1=NC(C(=O)OC)(C(=O)OC)C(c2cccc(C=O)c2)O1)C(=O)OCC (stereo not given) | – | > 100 µM | > 100 µM | – | > 100 µM | – | > 100 µM | > 100 µM | > 100 µM | > 100 µM | – | – | – | – | – | – | –
CC(C)(C)OC(=O)Cn1ncn(NC(=O)Cc2ccccc2)c1=S | > 10 µM | > 10 µM | > 10 µM | > 10 µM | > 10 µM | > 10 µM | > 10 µM | > 10 µM | – | > 10 µM | – | – | – | – | – | – | –
NC(=S)NNCC(=O)CC(O)(C(F)(F)F)C(F)(F)Cl (stereo not given) | > 100 µM | > 100 µM | > 100 µM | > 100 µM | > 100 µM | > 100 µM | – | > 100 µM | > 100 µM | > 100 µM | – | – | – | – | – | – | –
OC12CCC3(OC4CCCCO4)c4ccccc4C3C1c1ccccc12 (stereo not given) | > 100 µM | > 100 µM | > 100 µM | – | > 100 µM | > 100 µM | > 100 µM | > 100 µM | > 100 µM | > 100 µM | – | – | – | – | – | – | –
CC(=O)OC1CCn2c1nc1cc([N+](=O)[O-])c(C)cc12 (stereo not given) | > 100 µM | > 100 µM | > 100 µM | > 100 µM | > 100 µM | > 100 µM | – | > 100 µM | > 100 µM | > 100 µM | – | – | – | – | – | – | –
COc1cccc(NC(=O)CC(=O)NN)c1 | > 100 µM | > 100 µM | – | > 100 µM | > 100 µM | > 100 µM | > 100 µM | > 100 µM | > 100 µM | > 100 µM | – | – | – | – | – | – | –
Oc1c(Br)cc2c(c1Br)-c1c(c(O)c3c4c1=NCCC=4C=N3)NCC2 | 5.52 µM | 23.5 µM | – | 26.5 µM | 27.9 µM | 19.5 µM | > 66.3 µM | 9.49 µM | 16.9 µM | – | – | – | – | – | – | – | –
COC1OC2COC(=O)c3cc(O)c(O)c(O)c3-c3c(cc(O)c(O)c3O)C(=O)OC2C(O)C1O (stereo not given) | > 100 µM | > 100 µM | > 100 µM | > 100 µM | > 100 µM | 37.8 µM | > 100 µM | > 100 µM | – | > 100 µM | – | – | – | – | – | – | –
C[C@]12CC[C@H]3[C@@H](CC=C4C[C@@H](O)CC[C@@]43C)[C@@H]1C/C(=C\c1cccnc1)[C@@H]2O | 42.5 µM | 58.9 µM | > 100 µM | 81.6 µM | > 100 µM | 17.2 µM | 29.4 µM | > 100 µM | – | 32.2 µM | – | – | – | – | – | – | –
Brc1ccc2[nH]c3c(C4=NCCC4)nccc3c2c1 | > 100 µM | > 87.7 µM | – | > 25.4 µM | > 32.8 µM | > 36.7 µM | > 42.2 µM | > 30.1 µM | 18.6 µM | – | – | – | – | – | – | – | –
[CH3][Sn]([CH3])([CH3])[S]C(=S)N1CCOCC1 | 0.42 µM | 4.21 µM | – | – | 4.38 µM | 13.2 µM | 4.86 µM | 1.67 µM | 1.3 µM | – | 0.102 µM | 0.818 µM | 1.05 µM | 3.51 µM | 2.28 µM | 0.0701 µM | 0.217 µM
CCOC(=O)C1=C(O)CC(=O)N=C1N1CCCC1 | > 100 µM | > 100 µM | > 100 µM | > 100 µM | – | > 100 µM | > 100 µM | > 100 µM | > 100 µM | > 100 µM | – | – | – | – | – | – | –
